Measured values reported in PubChem BioAssay AID1597 (NINDS Approved Drug Screening Program, 2009).
Results filed as inconclusive are left out.

test system: Drosophila SCA1 polyglutamine model, toxicity suppression; assay: Reduction of SCA1 polyglutamine toxicity, EC50 from dose response in whole drosophila (AID 1597)

Row | SMILES | EC50
1 | C[C@@H]1CC2C3CCC4=CC(=O)C=C[C@]4(C)[C@@]3(F)[C@@H](O)C[C@]2(C)[C@@]1(O)C(=O)COP(=O)(O)O (some centres undefined) | 750 nM
2 | OCC(S)CS (centres undefined) | 300 nM
3 | NC(Cc1cc(I)c(Oc2ccc(O)c(I)c2)c(I)c1)C(=O)O (centres undefined) | 5000 nM
4 | Cc1cc(C(C)(C)C)cc(C)c1CC1=NCCN1 | 250 nM
5 | N#C/C(=C\c1ccc(O)cc1)C(=O)O | 50 nM
6 | CC(=O)OCC(=O)[C@H]1CCC2C3CCC4=CC(=O)CC[C@]4(C)C3CC[C@@]21C (some centres undefined) | 3000 nM
7 | NS(=O)(=O)c1cc(C2(O)NC(=O)c3ccccc32)ccc1Cl (centres undefined) | 5000 nM
8 | C=C1C2CC[C@H]3[C@]4(C)C[C@H](OC5OC(CO)C(OS(=O)(=O)O)C(OS(=O)(=O)O)C5OC(=O)CC(C)C)C[C@@H](C(=O)O)[C@H]4CC[C@]3(C2)[C@H]1O (some centres undefined) | 225 nM
9 | C[C@@H]1O[C@@H](O[C@H]2[C@H](Oc3cc(O)c4c(c3)O[C@H](c3ccc(O)cc3)CC4=O)O[C@H](CO)[C@@H](O)[C@@H]2O)[C@H](O)[C@H](O)[C@H]1O | 5000 nM
10 | C[N+](C)(C)CC(=O)[O-] | 3000 nM
11 | CCCCCCCCCCCCCCCC(=O)OC/C=C(C)/C=C/C=C(C)/C=C/C1=C(C)CCCC1(C)C | 275 nM
12 | C[N+](C)(C)CCOC(N)=O | 3000 nM
13 | CN1CCOC(c2ccccc2)c2ccccc2C1 (centres undefined) | 50 nM
14 | CC(N)CCCC(C)(C)O (centres undefined) | 50 nM
